Laboratory results taken from PMC8162438, “Cancer cell-selective modulation of mitochondrial respiration and metabolism by potent organogold(III) dithiocarbamates” (Chemical Science, 2020).

Tested on: MDA-MB-231
Assay: Whole-cell gold uptake by ICP-OES
Format: cell-based
Conditions: MDA-MB-231, 5 μM, 24 h
Procedure: We next performed cellular uptake studies to determine what percentage of the compounds were getting into the cell after treatment. Given that most therapeutic targets are localized receptors on the plasma membrane, quantifying the amount of gold compounds in cellular fractions and investigating their mode of uptake is crucial. For whole-cell uptake studies, MDA-MB-231 were treated with all 10 compounds and Auranofin at 5 μM for 24 h (Fig. 5A). Auranofin is the only gold-based therapeutic to be clinically approved, therefor we used this drug as a benchmark for comparison.[67] After treatment, the cells were washed with PBS, centrifuged, and digested with 0.5 mL of conc. […] Given that these complexes readily react with nucleophilic biological molecules and the lack of accumulation in the nuclear fraction, it is evident that the mechanism of action of this class of compounds is differentiated from the clinically available platinum agents. […]
positive control. When ready for analysis, the media were removed and the wells washed with 5 mL of PBS. […] The cells were resuspended in 2 mL of fresh media, counted, and reconstituted to a concentration of 1 x 10^5 cells/mL. […]
Compound 2a was prepared as a stock in DMSO and added to the respective wells at the specified concentrations of 0.1, 1, and 10 µM and treated for 12 h. […] The samples were cooled and stored at −20 °C until ready for use. […]

Row | Structure (SMILES) | Intracellular uptake
1 | C[N+](C)=C1[S][Au-2]2([S]1)[c]1ccccc1C(=O)c1cccc[n+]12.F[P-](F)(F)(F)(F)F (centres unmarked) [1a] | 3017 pmol per million cells
2 | C[N+](C)=C1[S][Au-2]2([S]1)[c]1ccccc1Cc1cccc[n+]12.F[P-](F)(F)(F)(F)F (centres unmarked) [2a] | 3267 pmol per million cells
